Residues, ends and D or L forms follow the SMILES beside them. *: point of attachment. Boc = CC(C)(C)OC(=O)*
Compound `NCc1cccc(OCCC2Oc3ccccc3N(Cc3cccc(Cl)c3)C2=O)c1` (centres undefined) has a melting point of 124 to 129 °C.
`CN(C)S(=O)(=O)c1ccc([N+](=O)[O-])cc1C(F)(F)F` gave a melting point of 95 to 97 °C.
Work on `CNC(=O)N1CC(Oc2ccc(Cl)cc2Cl)C1` yielded a melting point of 140 to 141 °C.
`CN1CCN(c2c(F)cc3c(=O)c(C(=O)O)cn(C4COC4)c3c2Cl)CC1` gave a melting point of 211 to 212 °C.
In the case of `c1ccc(N2CNCC23CCN(C2CCc4ccccc42)CC3)cc1` (racemic), the melting point is reported as > 250 °C.
Work on `CC(C)CCC(=O)NC1(C(=O)NC2N=C(C(C)(C)C)c3ccccc3N(C)C2=O)CCCC1` (centres undefined) yielded a melting point of 175 to 178 °C.
For `Cc1cc(F)c([N+](=O)[O-])cc1N`, the melting point was 178 °C.
Compound `O=C(CCn1c2ccc(O)cc2c2c3c(c(-c4ccccc4Cl)cc21)C(=O)NC3=O)NS(=O)(=O)c1ccccc1` has a melting point of 291 to 293 °C.
Compound `CCN(CC)C(=O)c1cc2ccccc2c(-c2ccccc2)n1` has a melting point of 72 °C.
In the case of `COC(=O)C(CCSC)NC(=O)C(CC(C)C)NC(=O)CNC(=O)C(NC(=O)C(Cc1ccccc1)NC(=O)C(C)NC(=O)OC(C)(C)C)C(C)C` (centres undefined) (Boc-AFVGLM-OMe; configuration not given here), the melting point is reported as 252 to 254 °C.
With `CCN(CC)CCOC(=O)c1cc2cc(Br)ccc2nn1` the melting point was 90 to 93 °C.
Work on `OC1(c2ccc(F)cc2)CCC2(CC1)OCCO2` yielded a melting point of 133 to 135 °C.
For `Cc1c(CN2CCN(c3cccc(Cl)c3)C2=O)ncn1C(c1ccccc1)(c1ccccc1)c1ccccc1`, the melting point was 189 to 191 °C.
Work on `CC(=O)c1ccc2nc(N)[nH]c2c1` yielded a melting point of 228 to 234 °C.
Compound `Cc1nnc(-c2ccc(CN3C(=O)C4(COc5cc6c(cc54)CCO6)c4ccccc43)cc2)[nH]1` (centres undefined) has a melting point of 169 to 180 °C.
Work on `Cn1nc(C(F)(F)F)n(-c2ccc(F)cc2)c1=S` yielded a melting point of 94 to 96 °C.
Work on `N#Cc1ccc2c(c1)C(C(=O)O)c1ccccc1CO2` (centres undefined) yielded a melting point of 215 to 217 °C.
Work on `OCC1(c2ccccc2)CCN(Cc2ccccc2)CC1` yielded a melting point of 127 °C.
For `COCCNC(=O)CN1CCN(Cc2ccc3c(c2)NC(=O)C(C)O3)CC1` (centres undefined), the melting point was 111 to 142 °C.
Compound `O=C1CCCc2c1ccc(O)c2CCc1ccccc1` has a melting point of 185 to 188 °C.
`COCCOc1ccc(CCCC(=O)O)c(Oc2ncc(C(F)(F)F)cc2Cl)c1` showed a melting point of 119 to 120 °C.
Work on `CC(C)(C)Nc1c(NCc2cccc(C(F)(F)F)c2)c(=O)c1=O` yielded a melting point of 237 to 239 °C.
With `OCC=C(c1ccccc1)c1ccccc1` the melting point was 112 to 115 °C.
`CCC(CC)Cn1cc(C(=O)C(=O)O)c2cc(-c3ccc(OC(F)(F)F)cc3)ccc21` gave a melting point of 98 to 99 °C.
For `Cn1nnnc1CN1C2CCC1CC(Oc1ccc(Cl)c(Cl)c1)C2` (centres undefined), the melting point was 119 to 120 °C.
For `O=C(NC1CCOCC1)c1cccc(-c2cccc3oc(Cc4cccc(C(F)(F)F)c4)cc23)c1`, the melting point was 107 to 108 °C.
Compound `Cc1c(C(=O)OC(C)C)ncc2[nH]c3cccc(Oc4ccc(Cl)cn4)c3c12` has a melting point of 243 to 245 °C.
In the case of `O=S1(=O)CCCSC(Cl)=N1`, the melting point is reported as 156 °C.
`COc1cc(NC(=O)OC(C)(C)C)cc2c1nc(C(F)F)n2-c1nc(N2CCOCC2)nc(N2CCN(S(=O)(=O)CCN(C)C)CC2)n1` gave a melting point of 200 to 202 °C.
Work on `COC(=O)c1nc(-c2ccc(Cl)cc2)c(F)c(N)c1I` yielded a melting point of 114 to 115 °C.
For `CCCCOC(=O)c1cc(=O)c2c3c(cc(Cl)c2o1)-c1ccc(S(=O)(=O)O)cc1CO3`, the melting point was 95 to 97 °C.
`COC(=O)C1C(=O)CC2CCC1N2C` (mixture of isomers) showed a melting point of 104 to 107 °C.
With `CSc1cc(C(C)C)c(NC(=O)C2c3ccccc3COc3ccc(Br)cc32)c(C(C)C)c1` (centres undefined) the melting point was 171 to 172 °C.
Work on `CCC(CC)(NC(C)=O)c1ccc(CN2CCN(c3ccccc3)CC2)cc1` yielded a melting point of 139 to 140 °C.
With `Cn1ncc(C(=O)N2CCOCC2)c1C(=O)Nc1ccn2nc(N3CCOCC3)nc2c1` the melting point was 206 to 208 °C.
With `CCc1nc(C)cn1CC1CC2c3cccc4[nH]cc(c34)CC2N(C)C1` (centres undefined) the melting point was 172 to 174 °C.
For `CCn1c(=O)c(C(=O)O)c(-c2ccccc2Cl)c2cc(C)c(C)cc21`, the melting point was 168 to 170 °C.
With `COc1ccc2c(c1)OC=C(C(=O)N1CCN(C(c3ccc(F)cc3)c3ccc(F)cc3)CC1)O2` the melting point was 65 °C.
In the case of `CCCC1(CCC)c2ccccc2-c2cc(NC(=O)c3cc4oc5ccccc5c4cc3OC)c(O)cc21`, the melting point is reported as 252 to 255 °C.
For `Cc1nc2c3c(c(C(=O)N4CCOCC4)cc2n1C)CCC(c1ccccc1)O3` (centres undefined), the melting point was 291 to 293 °C.
Compound `Cc1cc2c(cc1C1=NNC(=O)CC1C)N(C)C(=O)C(C)O2` (centres undefined) has a melting point of 190 to 192 °C.
Compound `C=C(C)N(C(=C)C)C(=O)C(C)Oc1cc(-c2ccccc2)nc2ccccc12` (centres undefined) has a melting point of 110 °C.
For `O=C1CCCN1c1cccc2cccnc12`, the melting point was 118 to 120 °C.
Work on `O=C(c1ccc(F)cc1)c1c(-c2ccc(OCCN3CCCC3)cc2)sc2c(O)cccc12` yielded a melting point of 138 to 142 °C.
In the case of `O=C1Nc2ccc(-c3cccc(Cl)c3)cc2C(C2CC2)(C2CC2)O1`, the melting point is reported as 198 to 200 °C.
`Cc1cc(Oc2cccc(C(F)(F)F)c2)nn1C(=O)Nc1ccc(C(F)(F)F)cc1` showed a melting point of 82 to 84 °C.
For `CC(=O)NNC1=Nc2sccc2C(c2ccccc2)=NC1`, the melting point was 194 to 196 °C.
With `CC(C)(Cc1ccccc1)C(NC(=O)CCc1ccccc1)Nc1c(Nc2cccnc2)c(=O)c1=O` (centres undefined) the melting point was 221 to 223 °C.
With `CC=Cc1c(C(C)C)nc(C(C)C)c(CO)c1-c1ccc(F)cc1` the melting point was 46 to 47 °C.

— a melting point compilation (Tetko et al.; mined from patent text by program, amines drawn as free bases though some values may be those of a salt)
